Consider one molecule from EPA's ToxValDB 9.5 (doi:10.2903/j.efsa.2008.119r).

The test system of data set [1] is Oryctolagus sp. The settings on record: reproduction developmental; mortality.
Data set [2] relates to Oncorhynchus mykiss. The settings on record: chronic/long-term; duration: 21 days; growth.
The subject of data set [3] is Coturnix japonica. The settings on record: reproduction developmental.
For data set [4], the system named is Tagia sp. The settings on record: chronic/long-term; duration: 56 days.
In data set [5] the test system is Daphnia magna. The conditions noted are these: chronic/long-term; duration: 21 days; reproduction.
Data set [6] relates to Rattus norvegicus.
In data set [7] the test system is Mus musculus. The conditions noted are these: chronic; duration: 2 years; hematological.
Data set [8] deals with Typhlodromus pyri. The conditions noted are these: not reported; mortality.
In data set [9] the test system is Bibionidae. The conditions noted are these: chronic/long-term; duration: 28 days.

For orientation: NOAEL means the highest dose or exposure tested at which no adverse effect was seen. `COC(=O)c1cc(Oc2ccc(Cl)cc2Cl)ccc1[N+](=O)[O-]` [Bifenox]: the NOAEL in data set [1] was 50 mg/kg-day; in data set [6] (chronic) it was 16 mg/kg-day; in data set [6] (reproduction developmental, reproduction), 44.5 mg/kg-day; in [7], 30 mg/kg-day. The NOEC in data set [2] is 0.0091 mg/L; in data set [3] it was 290 mg/kg-day; in [4], 5.1 mg/kg; in data set [5], 0.00015 mg/L; in data set [9], 0.015 mg/L. Further, the LEL in [8] amounted to 720 g/ha.
